Biological target: recombinant CD73 (Homo sapiens (Human), UniProt P21589)
Test: Inhibition of soluble recombinant CD73 enzyme activity in vitro (AMP hydrolysis, Malachite Green phosphate detection)
Type: biochemical
Details: recombinant CD73 0.5 nM, AMP 50 μM, 30 minutes at room temperature
Method: Inhibition of the CD73 Enzyme In Vitro
The concentration of inorganic phosphate was determined using a phosphate standard curve.

Chain of recombinant CD73 (P21589 27-547): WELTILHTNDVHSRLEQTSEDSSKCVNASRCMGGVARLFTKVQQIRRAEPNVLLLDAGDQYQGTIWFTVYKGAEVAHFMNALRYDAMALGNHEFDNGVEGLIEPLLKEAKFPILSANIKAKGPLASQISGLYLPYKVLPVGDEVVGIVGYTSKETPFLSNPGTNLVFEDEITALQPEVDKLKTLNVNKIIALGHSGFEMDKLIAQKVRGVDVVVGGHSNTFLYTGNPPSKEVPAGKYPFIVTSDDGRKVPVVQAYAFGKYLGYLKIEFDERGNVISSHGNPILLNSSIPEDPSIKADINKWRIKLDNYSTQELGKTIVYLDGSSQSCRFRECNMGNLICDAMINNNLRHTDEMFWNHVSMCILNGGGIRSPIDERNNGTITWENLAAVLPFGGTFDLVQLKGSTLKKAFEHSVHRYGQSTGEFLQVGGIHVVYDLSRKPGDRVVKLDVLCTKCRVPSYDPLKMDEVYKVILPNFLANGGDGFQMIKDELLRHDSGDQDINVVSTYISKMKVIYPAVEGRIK

Point of comparison: Nc1nc(Cl)nc2c1ncn2[C@@H]1O[C@H](COC(Cc2cccc(F)c2)(C(=O)O)C(=O)O)[C@@H](O)[C@@H]1F, IC50 273 nM. Against it:
- Nc1ncnc2c1ncn2[C@@H]1O[C@H](COC(Cc2ccccc2)(C(=O)O)C(=O)O)[C@@H](O)[C@H]1F — 79-fold higher, 21600 nM
- CN(C)C(=O)c1cccc(CC(OC[C@H]2O[C@@H](n3cnc4c(N)nc(Cl)nc43)[C@@H](F)[C@@H]2O)(C(=O)O)C(=O)O)c1 — 1.9-fold higher, 521 nM
- Nc1nc(Cl)nc2c1ncn2[C@@H]1O[C@H](COC(Cc2ccsc2)(C(=O)O)C(=O)O)[C@@H](O)[C@@H]1F — within 1.5-fold, 206 nM
- Nc1cccc(CC(OC[C@H]2O[C@@H](n3cnc4c(N)nc(Cl)nc43)[C@@H](F)[C@@H]2O)(C(=O)O)C(=O)O)c1 — within 1.5-fold, 218 nM
- N#Cc1ccc(CC(OC[C@H]2O[C@@H](n3cnc4c(N)nc(Cl)nc43)[C@@H](F)[C@@H]2O)(C(=O)O)C(=O)O)cc1 — 2.8-fold lower, 97 nM
- N#Cc1cccc(CC(OC[C@H]2O[C@@H](n3cnc4c(N)nc(Cl)nc43)[C@@H](F)[C@@H]2O)(C(=O)O)C(=O)O)c1 — 1.9-fold higher, 531 nM
- Nc1nc(Cl)nc2c1ncn2[C@@H]1O[C@H](COC(Cc2ccc(OC(F)(F)F)cc2)(C(=O)O)C(=O)O)[C@@H](O)[C@@H]1F — 4.8-fold lower, 57 nM
- Nc1nc(Cl)nc2c1ncn2[C@@H]1O[C@H](COC(Cc2ccc(CO)cc2)(C(=O)O)C(=O)O)[C@@H](O)[C@@H]1F — 1.7-fold lower, 160 nM
- CC(C)(C)OC(=O)Nc1nc(N=[N+]=[N-])nc2c1ncn2[C@@H]1O[C@H](COC(Cc2cccc(C#N)c2)(C(=O)O)C(=O)O)[C@@H](O)[C@@H]1F — 6.6-fold higher, 1790 nM
- Nc1nc(Cl)nc2c1ncn2[C@@H]1O[C@H](COC(Cc2cccc(C(=O)O)c2)(C(=O)O)C(=O)O)[C@@H](O)[C@@H]1F — 2.3-fold lower, 119 nM
- [N-]=[N+]=Nc1nc(N)c2ncn([C@@H]3O[C@H](COC(Cc4cccc(-c5nnn[nH]5)c4)(C(=O)O)C(=O)O)[C@@H](O)[C@@H]3F)c2n1 — 3.8-fold higher, 1040 nM
- Nc1nc(Cl)nc2c1ncn2[C@@H]1O[C@H](COC(Cc2ccc(F)cc2)(C(=O)O)C(=O)O)[C@@H](O)[C@@H]1F — within 1.5-fold, 343 nM
- COc1cccc(CC(OC[C@H]2O[C@@H](n3cnc4c(N)nc(Cl)nc43)[C@@H](F)[C@@H]2O)(C(=O)O)C(=O)O)c1 — 3.1-fold higher, 839 nM
- CCOC(=O)C(Cc1ccc(-c2ccccc2)cc1)(OC[C@H]1O[C@@H](n2cnc3c(N)nc(Cl)nc32)[C@@H](F)[C@@H]1O)C(=O)O (single isomer, unassigned) [84 Isomer 1] — 27-fold higher, 7260 nM
- CCOC(=O)C(Cc1ccc(-c2ccccc2)cc1)(OC[C@H]1O[C@@H](n2cnc3c(N)nc(Cl)nc32)[C@@H](F)[C@@H]1O)C(=O)O (single isomer, unassigned) [84 Isomer 2] — 30-fold higher, 8260 nM
- Nc1nc(Cl)nc2c1ncn2[C@@H]1O[C@H](COC(C(=O)O)C(=O)O)[C@@H](O)[C@@H]1F [Example 5] — 48-fold higher, 13100 nM
- Nc1nc(Cl)nc2c1ncn2[C@@H]1O[C@H](COC(Cc2ccccc2)(C(=O)O)C(=O)O)[C@@H](O)[C@@H]1F [Example 6, 2-(((2R,3R,4S,5R)-5-(6-amino-2-chloro-9H-purin-9-yl)-4-fluoro-3-hydroxytetrahydro-furan-2-yl)methoxy)-2-benzylmalonic acid] — 2.1-fold lower, 130 nM
- Nc1nc(Cl)nc2c1ncn2[C@@H]1O[C@H](COC(Cc2ccc(Cl)nc2)(C(=O)O)C(=O)O)[C@@H](O)[C@@H]1F [Example 8, 2-(((2R,3R,4S,5R)-5-(6-amino-2-chloro-9H-purin-9-yl)-4-fluoro-3-hydroxytetrahydro-furan-2-yl)methoxy)-2-((6-chloropyridin-3-yl)methyl)malonic acid] — within 1.5-fold, 363 nM
- Nc1nc(Cl)nc2c1ncn2[C@@H]1O[C@H](COC(Cc2cccc(OC(F)(F)F)c2)(C(=O)O)C(=O)O)[C@@H](O)[C@@H]1F [Example 15, 2-(((2R,3R,4S,5R)-5-(6-amino-2-chloro-9H-purin-9-yl)-4-fluoro-3-hydroxytetrahydrofuran-2-yl)methoxy)-2-(3-(trifluoromethoxy)benzyl) malonic acid] — within 1.5-fold, 308 nM

— patent publication US10570167B2 (Calithera Biosciences, Inc., priority 2016, dated 2020)
